Results published in patent US12660819B2, “Herbicidal derivatives” (SYNGENTA CROP PROTECTION AG, priority 2020, dated 2026).

What was measured:
Type in all cases: in vivo
[1] = tested on: Ipomoea hederacea (IPOHE); assay: Pre-emergence Test (glasshouse, percentage damage to the plant); details: 1000 g/ha unless otherwise stated; for percentage damage to the plant, IPOHE (five-point scale): Ipomoea hederacea
[2] = tested on: Echinochloa crus-galli (ECHCG); assay: as above; details: 1000 g/ha unless otherwise stated; for percentage damage to the plant, ECHCG (five-point scale): Echinochloa crus-galli
[3] = tested on: Amaranthus palmeri (AMAPA); assay: as above; details: 1000 g/ha unless otherwise stated; for percentage damage to the plant, AMAPA (five-point scale): Amaranthus palmeri
[4] = tested on: Ipomoea hederacea (IPOHE); assay: Post-emergence Test (glasshouse, percentage damage to the plant); details: 1000 g/ha unless otherwise stated, evaluated after 13 days; for IPOHE, percentage damage caused to the plant (five-point scale): post-emergence
Procedure, shortened: (§1)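 Scored 13 days after spraying as percentage plant damage in five bands (5=81–100%, 4=61–80%, 3=41–60%, 2=21–40%, 1=0–20%). Spray at 1000 g/ha unless stated, in acetone/water 50:50 plus 0.5% Tween 20, onto sown glasshouse pots (24/16 °C, 14 h light, 65% humidity).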

Setaria faberi (SETFA) [5] = assay: as above; details: 1000 g/ha unless otherwise stated, evaluated after 13 days; for SETFA, percentage damage caused to the plant (five-point scale): post-emergence
Procedure, shortened: as §1

[6] = tested on: Amaranthus palmeri (AMAPA); assay: as above; details: 1000 g/ha unless otherwise stated, evaluated after 13 days; for AMAPA, percentage damage caused to the plant (five-point scale): post-emergence
Procedure, shortened: (§2)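 Rate 1000 g/ha unless stated otherwise. Vehicle: acetone/water 50:50 with 0.5% Tween 20, diluted into aqueous spray. Timing: spray after sowing, read 13 days later. Score: 5=81-100%, 4=61-80%, 3=41-60%, 2=21-40%, 1=0-20% damage.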

[7] = tested on: Echinochloa crus-galli (ECHCG); assay: as above; details: 1000 g/ha unless otherwise stated, evaluated after 13 days; for ECHCG, percentage damage caused to the plant (five-point scale): post-emergence
Procedure, shortened: as §2

Zea mays (ZEAMX) [8] = assay: as above; details: 1000 g/ha unless otherwise stated, evaluated after 13 days; for ZEAMX, percentage damage caused to the plant (five-point scale): post-emergence
Procedure, shortened: as §1

[9] = tested on: Amaranthus retoflexus (AMARE); assay: as above; details: 1000 g/ha unless otherwise stated, evaluated after 13 days; for AMARE, percentage damage caused to the plant (five-point scale): post-emergence
Procedure, shortened: as §2

Zea mays (ZEAMX) [10] = assay: Pre-emergence Test (glasshouse, percentage damage to the plant); details: 1000 g/ha unless otherwise stated; for percentage damage to the plant, ZEAMX (five-point scale): Zea mays
[11] = tested on: Amaranthus retoflexus (AMARE); assay: as above; details: 1000 g/ha unless otherwise stated; for percentage damage to the plant, AMARE (five-point scale): Amaranthus retoflexus
Setaria faberi (SETFA) [12] = assay: as above; details: 1000 g/ha unless otherwise stated; for percentage damage to the plant, SETFA (five-point scale): Setaria faberi

| SMILES | percentage damage to the plant, IPOHE (five-point scale) [1] | percentage damage to the plant, ECHCG (five-point scale) [2] | percentage damage to the plant, AMAPA (five-point scale) [3] | IPOHE, percentage damage caused to the plant (five-point scale) [4] | SETFA, percentage damage caused to the plant (five-point scale) (Setaria faberi (SETFA) [5]) | AMAPA, percentage damage caused to the plant (five-point scale) [6] | ECHCG, percentage damage caused to the plant (five-point scale) [7] | ZEAMX, percentage damage caused to the plant (five-point scale) (Zea mays (ZEAMX) [8]) | AMARE, percentage damage caused to the plant (five-point scale) [9] | percentage damage to the plant, ZEAMX (five-point scale) (Zea mays (ZEAMX) [10]) | percentage damage to the plant, AMARE (five-point scale) [11] | percentage damage to the plant, SETFA (five-point scale) (Setaria faberi (SETFA) [12]) | other results |
| --- | --- | --- | --- | --- | --- | --- | --- | --- | --- | --- | --- | --- | --- |
| CCn1c(C)c(-c2ccc(Cl)cc2)c(=O)c(C(=O)O)c1-c1ccc(F)c(Cl)c1 [Compound 258, 2-(3-chloro-4-fluoro-phenyl)-5-(4-chlorophenyl)-1-ethyl-6-methyl-4-oxo-pyridine-3-carboxylic acid] | 1 (1=0-20%) | 5 (5=81-100%) | 5 (5=81-100%) | 3 (3=41-60%) | 5 (5=81-100%) | 5 (5=81-100%) | 5 (5=81-100%) | 5 (5=81-100%) | 4 (4=61-80%) | 1 (1=0-20%) | 5 (5=81-100%) | 5 (5=81-100%) |  |
| Cc1c(-c2ccc(Cl)cc2F)c(=O)c(C(=O)O)c(-c2ccc(Cl)c(Cl)c2)n1C [Compound 253, 5-(4-chloro-2-fluoro-phenyl)-2-(3,4-dichlorophenyl)-1,6-dimethyl-4-oxo-pyridine-3-carboxylic acid] | 4 (4=61-80%) | 5 (5=81-100%) | 5 (5=81-100%) | 3 (3=41-60%) | 5 (5=81-100%) | 5 (5=81-100%) | 5 (5=81-100%) | 3 (3=41-60%) | 5 (5=81-100%) | 1 (1=0-20%) | 5 (5=81-100%) | 5 (5=81-100%) |  |
| CCn1c(CBr)c(-c2ccc(Cl)cc2)c(=O)c(C(=O)OC)c1-c1ccc(Cl)c(Cl)c1 [Compound 218, methyl 6-(bromomethyl)-5-(4-chlorophenyl)-2-(3,4-dichlorophenyl)-1-ethyl-4-oxo-pyridine-3-carboxylate] | 0 | 0 | 0 | 0 | 2 (2=21-40%) | 3 (3=41-60%) | 1 (1=0-20%) | 1 (1=0-20%) | 3 (3=41-60%) | 0 | 0 | 0 |  |
| CCn1c(C)c(-c2ccc(F)cc2F)c(=O)c(C(=O)O)c1-c1cnc(Cl)c(Cl)c1 [Compound 210, 2-(5,6-dichloro-3-pyridyl)-5-(2,4-difluorophenyl)-1-ethyl-6-methyl-4-oxo-pyridine-3-carboxylic acid] | 0 | 1 (1=0-20%) | 4 (4=61-80%) | 3 (3=41-60%) | 4 (4=61-80%) | 4 (4=61-80%) | 4 (4=61-80%) | 3 (3=41-60%) | 5 (5=81-100%) | 0 | 3 (3=41-60%) | 2 (2=21-40%) |  |
| CCn1c(C)c(-c2ccc3ccccc3n2)c(=O)c(C(=O)O)c1-c1ccc(Cl)c(Cl)c1 [Compound 219, 2-(3,4-dichlorophenyl)-1-ethyl-6-methyl-4-oxo-5-(2-quinolyl)pyridine-3-carboxylic acid] | 0 | 0 | 1 (1=0-20%) | 3 (3=41-60%) | 1 (1=0-20%) | 3 (3=41-60%) | 1 (1=0-20%) | 0 | 3 (3=41-60%) | 0 | 0 | 1 (1=0-20%) |  |
| CCn1c(C)c(-c2ccc(Cl)cc2Cl)c(=O)c(C(=O)O)c1-c1cnc(Cl)c(Cl)c1 [Compound 209, 5-(2,4-dichlorophenyl)-2-(5,6-dichloro-3-pyridyl)-1-ethyl-6-methyl-4-oxo-pyridine-3-carboxylic acid] | 1 (1=0-20%) | 4 (4=61-80%) | 5 (5=81-100%) | 4 (4=61-80%) | 5 (5=81-100%) | 5 (5=81-100%) | 5 (5=81-100%) | 4 (4=61-80%) | 5 (5=81-100%) | 0 | 5 (5=81-100%) | 4 (4=61-80%) |  |
| CCn1c(C)c(-c2ccc(Cl)cc2)c(=O)c(C(=O)OC)c1-c1cnc(Cl)c(Cl)c1 [Compound 215, methyl 5-(4-chlorophenyl)-2-(5,6-dichloro-3-pyridyl)-1-ethyl-6-methyl-4-oxo-pyridine-3-carboxylate] | 1 (1=0-20%) | 2 (2=21-40%) | 3 (3=41-60%) | 1 (1=0-20%) | 3 (3=41-60%) | 4 (4=61-80%) | 3 (3=41-60%) | 3 (3=41-60%) | 4 (4=61-80%) | 0 | 4 (4=61-80%) | 4 (4=61-80%) |  |
| CCn1c(C)c(-c2ccc(F)cc2OC)c(=O)c(C(=O)OC)c1-c1ccc(Cl)c(Cl)c1 [Compound 163, methyl 2-(3,4-dichlorophenyl)-1-ethyl-5-(4-fluoro-2-methoxy-phenyl)-6-methyl-4-oxo-pyridine-3-carboxylate] |  |  |  |  |  |  |  |  |  |  |  |  | percentage damage to the plant, IPOHE ([1]; five-point scale): 0; percentage damage to the plant, ECHCG ([2]; five-point scale): 0; percentage damage to the plant, AMAPA ([3]; five-point scale): 1 (1=0-20%); Post-emergence Test IPOHE, percentage damage to the plant (five-point scale) ([4]; post-emergence spray): 0; Post-emergence Test SETFA, percentage damage to the plant (five-point scale) (Setaria faberi (SETFA) [5]; post-emergence spray): 0; Post-emergence Test AMAPA, percentage damage to the plant (five-point scale) ([6]; post-emergence spray): 2 (2=21-40%); Post-emergence Test ECHCG, percentage damage to the plant (five-point scale) ([7]; post-emergence spray): 0; Post-emergence Test ZEAMX, percentage damage to the plant (five-point scale) (Zea mays (ZEAMX) [8]; post-emergence spray): 0; Post-emergence Test AMARE, percentage damage to the plant (five-point scale) ([9]; post-emergence spray): 1 (1=0-20%); percentage damage to the plant, ZEAMX (Zea mays (ZEAMX) [10]; five-point scale): 1 (1=0-20%); percentage damage to the plant, AMARE ([11]; five-point scale): 1 (1=0-20%); percentage damage to the plant, SETFA (Setaria faberi (SETFA) [12]; five-point scale): 0 |
| CCn1c(C)c(-c2cc(C(F)(F)F)ccc2F)c(=O)c(C(=O)O)c1-c1ccc(Cl)c(Cl)c1 [Compound 206, 2-(3,4-dichlorophenyl)-1-ethyl-5-[2-fluoro-5-(trifluoromethyl)phenyl]-6-methyl-4-oxo-pyridine-3-carboxylic acid] | 3 (3=41-60%) | 2 (2=21-40%) | 4 (4=61-80%) | 2 (2=21-40%) | 4 (4=61-80%) | 4 (4=61-80%) | 2 (2=21-40%) | 1 (1=0-20%) | 4 (4=61-80%) | 0 | 2 (2=21-40%) | 5 (5=81-100%) |  |
